pIC50: −log10 of the molar value. Active and inactive are the calls of the source. The rule behind the calls is not given here. Bounds are passed on as bounds.

From ChEMBL document CHEMBL1144174, “Design and synthesis of 6-fluoro-2-naphthyl derivatives as novel CCR3 antagonists with reduced CYP2D6 inhibition” (Bioorg Med Chem, 2008) come the findings set out here.

One test deals with Cytochrome P450 2D6 (Homo sapiens, UniProt P10635). Description: Inhibition of human CYP2D6 by fluorescence technique in presence of NADP. It counts as ADME.
Cytochrome P450 2D6, sequence (P10635 whole entry): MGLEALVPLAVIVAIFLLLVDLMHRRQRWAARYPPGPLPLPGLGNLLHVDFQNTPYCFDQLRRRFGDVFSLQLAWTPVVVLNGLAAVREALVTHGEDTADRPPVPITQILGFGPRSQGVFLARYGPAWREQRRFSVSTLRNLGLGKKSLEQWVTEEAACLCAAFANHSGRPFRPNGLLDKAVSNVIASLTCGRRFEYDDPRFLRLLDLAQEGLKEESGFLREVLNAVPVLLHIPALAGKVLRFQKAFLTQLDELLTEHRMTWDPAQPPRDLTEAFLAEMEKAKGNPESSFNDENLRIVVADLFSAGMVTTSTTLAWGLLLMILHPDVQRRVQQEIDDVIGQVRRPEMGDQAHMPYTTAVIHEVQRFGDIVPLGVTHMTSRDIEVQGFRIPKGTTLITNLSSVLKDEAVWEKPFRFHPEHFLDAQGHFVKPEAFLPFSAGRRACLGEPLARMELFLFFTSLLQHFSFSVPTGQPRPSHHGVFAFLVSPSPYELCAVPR
In test [1] the target is T1, C-C chemokine receptor type 3 (Homo sapiens, UniProt P51677).
T1 sequence (P51677 whole entry): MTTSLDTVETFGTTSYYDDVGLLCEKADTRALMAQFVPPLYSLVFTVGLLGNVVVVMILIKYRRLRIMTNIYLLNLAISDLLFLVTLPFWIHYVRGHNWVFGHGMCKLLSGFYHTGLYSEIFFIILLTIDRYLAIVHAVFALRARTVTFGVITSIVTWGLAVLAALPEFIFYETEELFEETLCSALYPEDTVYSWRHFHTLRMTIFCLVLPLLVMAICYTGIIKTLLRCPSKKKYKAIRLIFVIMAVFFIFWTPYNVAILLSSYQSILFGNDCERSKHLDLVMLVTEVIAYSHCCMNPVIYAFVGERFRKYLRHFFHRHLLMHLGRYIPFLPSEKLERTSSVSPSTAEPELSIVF
Description: Antagonist activity at CCR3 receptor expressed in mouse B300-19 cells assessed as inhibition of eotaxin-induced calcium influx by spectrophotometry. It is filed as functional, cell-based.

For test [2], the target named is T2, C-C chemokine receptor type 1 (Homo sapiens) (UniProt P32246).
T2 sequence (whole entry): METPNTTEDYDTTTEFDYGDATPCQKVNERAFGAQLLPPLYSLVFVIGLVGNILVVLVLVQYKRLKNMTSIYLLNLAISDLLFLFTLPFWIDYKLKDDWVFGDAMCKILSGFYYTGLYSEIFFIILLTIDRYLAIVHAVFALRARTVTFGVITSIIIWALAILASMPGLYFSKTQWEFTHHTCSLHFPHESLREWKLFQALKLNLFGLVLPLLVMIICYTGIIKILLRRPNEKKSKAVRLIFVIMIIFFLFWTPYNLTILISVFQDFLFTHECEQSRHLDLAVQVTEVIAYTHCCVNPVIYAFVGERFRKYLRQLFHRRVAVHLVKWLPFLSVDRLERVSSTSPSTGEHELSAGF
Description: Inhibition of CCR1 receptor at 10 uM.

The target in test [3] is C-C chemokine receptor type 2 (Homo sapiens) (UniProt P41597). Description: Inhibition of CCR2 receptor at 10 uM.
C-C chemokine receptor type 2 (Homo sapiens), sequence (P41597 whole entry, looked up): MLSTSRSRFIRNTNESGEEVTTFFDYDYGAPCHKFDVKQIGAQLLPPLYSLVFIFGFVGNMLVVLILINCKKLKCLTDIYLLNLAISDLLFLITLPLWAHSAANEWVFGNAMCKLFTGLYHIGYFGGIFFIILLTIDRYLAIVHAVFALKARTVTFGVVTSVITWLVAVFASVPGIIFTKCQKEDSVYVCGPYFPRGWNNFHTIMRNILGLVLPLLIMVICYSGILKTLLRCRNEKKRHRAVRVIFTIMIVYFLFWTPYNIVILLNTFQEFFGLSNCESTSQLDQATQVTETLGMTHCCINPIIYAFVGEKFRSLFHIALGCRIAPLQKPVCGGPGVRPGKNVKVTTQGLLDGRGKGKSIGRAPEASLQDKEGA
Test [4] addresses C-C chemokine receptor type 5 (Homo sapiens) (UniProt P51681). Description: Inhibition of CCR5 receptor at 10 uM.
The target of a further test is T3, Cytochrome P450 1A2 (Homo sapiens, UniProt P05177).
T3 sequence (P05177 whole entry): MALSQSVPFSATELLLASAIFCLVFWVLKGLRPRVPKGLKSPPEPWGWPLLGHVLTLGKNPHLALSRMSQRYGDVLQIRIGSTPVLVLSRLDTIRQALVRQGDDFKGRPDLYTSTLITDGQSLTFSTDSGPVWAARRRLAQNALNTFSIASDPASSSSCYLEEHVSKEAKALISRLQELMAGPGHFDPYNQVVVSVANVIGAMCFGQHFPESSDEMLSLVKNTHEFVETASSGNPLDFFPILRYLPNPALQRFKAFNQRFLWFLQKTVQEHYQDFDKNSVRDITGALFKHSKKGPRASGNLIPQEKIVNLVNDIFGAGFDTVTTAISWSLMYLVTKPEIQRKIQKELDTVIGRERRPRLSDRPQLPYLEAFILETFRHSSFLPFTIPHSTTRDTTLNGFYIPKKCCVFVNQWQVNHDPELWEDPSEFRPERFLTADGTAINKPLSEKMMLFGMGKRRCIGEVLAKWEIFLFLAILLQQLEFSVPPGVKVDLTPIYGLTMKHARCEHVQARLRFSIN
Description: Inhibition of human CYP1A2. It counts as ADME.

In the next test the target is Cytochrome P450 2C9 (Homo sapiens, UniProt P11712). Description: Inhibition of human CYP2C9. It is filed as ADME.
Cytochrome P450 2C9, sequence (P11712 whole entry): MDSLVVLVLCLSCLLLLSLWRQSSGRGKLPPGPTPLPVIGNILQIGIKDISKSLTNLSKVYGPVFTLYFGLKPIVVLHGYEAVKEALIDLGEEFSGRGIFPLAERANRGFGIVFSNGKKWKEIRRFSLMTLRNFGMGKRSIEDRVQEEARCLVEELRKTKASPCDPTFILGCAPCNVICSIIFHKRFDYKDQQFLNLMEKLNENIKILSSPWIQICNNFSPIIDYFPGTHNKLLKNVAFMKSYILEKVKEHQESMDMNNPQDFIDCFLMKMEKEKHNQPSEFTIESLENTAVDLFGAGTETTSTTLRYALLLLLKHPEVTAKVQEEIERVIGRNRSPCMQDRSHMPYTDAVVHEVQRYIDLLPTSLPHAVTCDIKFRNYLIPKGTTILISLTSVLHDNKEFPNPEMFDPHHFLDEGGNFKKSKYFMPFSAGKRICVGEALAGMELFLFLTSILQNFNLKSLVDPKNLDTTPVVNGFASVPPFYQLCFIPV
Another test has as its target Cytochrome P450 2C19 (Homo sapiens, UniProt P33261). Description: Inhibition of human CYP2C19. It is filed as ADME.
The next test deals with Cytochrome P450 3A4 (Homo sapiens, UniProt P08684). Description: Inhibition of human CYP3A4. It is filed as ADME.
Cytochrome P450 3A4, sequence (P08684 whole entry): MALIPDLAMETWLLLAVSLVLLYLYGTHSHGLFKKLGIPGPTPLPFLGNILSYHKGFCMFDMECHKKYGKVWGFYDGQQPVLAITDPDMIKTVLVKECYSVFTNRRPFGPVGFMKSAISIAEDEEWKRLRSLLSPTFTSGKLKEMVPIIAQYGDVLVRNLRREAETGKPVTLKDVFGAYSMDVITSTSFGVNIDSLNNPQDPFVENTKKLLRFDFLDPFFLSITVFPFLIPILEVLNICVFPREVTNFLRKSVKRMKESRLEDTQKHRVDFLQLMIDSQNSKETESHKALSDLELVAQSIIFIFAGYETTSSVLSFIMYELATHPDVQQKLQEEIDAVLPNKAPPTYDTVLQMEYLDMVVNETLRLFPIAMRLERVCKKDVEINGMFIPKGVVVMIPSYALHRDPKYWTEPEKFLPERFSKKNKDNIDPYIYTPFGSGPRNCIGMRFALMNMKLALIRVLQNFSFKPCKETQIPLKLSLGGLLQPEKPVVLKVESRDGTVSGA

C-C chemokine receptor type 5 (Homo sapiens), sequence (P51681 whole entry, looked up): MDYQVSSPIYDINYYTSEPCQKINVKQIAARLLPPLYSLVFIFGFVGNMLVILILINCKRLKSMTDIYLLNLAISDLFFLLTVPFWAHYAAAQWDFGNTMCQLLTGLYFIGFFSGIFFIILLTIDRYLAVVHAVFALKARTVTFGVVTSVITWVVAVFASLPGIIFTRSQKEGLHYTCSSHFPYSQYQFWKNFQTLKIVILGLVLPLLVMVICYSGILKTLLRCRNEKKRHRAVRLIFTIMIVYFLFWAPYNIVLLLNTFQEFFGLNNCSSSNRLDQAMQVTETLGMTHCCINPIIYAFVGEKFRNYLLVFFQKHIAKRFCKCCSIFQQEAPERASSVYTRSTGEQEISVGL
Cytochrome P450 2C19, sequence (P33261 whole entry): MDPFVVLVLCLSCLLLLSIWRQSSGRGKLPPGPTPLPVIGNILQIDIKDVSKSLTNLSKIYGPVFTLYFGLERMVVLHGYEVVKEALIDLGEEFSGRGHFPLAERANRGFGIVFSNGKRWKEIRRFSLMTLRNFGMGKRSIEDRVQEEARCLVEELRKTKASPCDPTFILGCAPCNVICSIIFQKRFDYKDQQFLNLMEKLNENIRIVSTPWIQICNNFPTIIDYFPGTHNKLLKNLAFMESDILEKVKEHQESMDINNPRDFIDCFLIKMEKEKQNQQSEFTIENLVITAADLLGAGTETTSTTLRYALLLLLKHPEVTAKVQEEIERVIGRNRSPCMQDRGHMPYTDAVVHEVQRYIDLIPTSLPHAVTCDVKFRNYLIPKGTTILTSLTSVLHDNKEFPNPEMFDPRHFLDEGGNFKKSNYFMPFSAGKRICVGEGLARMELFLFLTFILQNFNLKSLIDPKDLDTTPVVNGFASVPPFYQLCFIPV

In the case of `O=C(N[C@@H]1C[C@H]2CC[C@@H](C1)N2Cc1ccc2cc(F)ccc2c1)c1ccccc1-c1cccnc1`, the pIC50 – broadly, −log10 of the IC50, conventionally taken in molar units – on Cytochrome P450 2D6 is 5.80; in test [1], 7.54. As for `O=C(N[C@@H]1C[C@H]2CC[C@@H](C1)N2Cc1ccc2cc(F)ccc2c1)c1ncccc1C(=O)N1CCCCC1`, the pIC50 was 4.63 on Cytochrome P450 2D6 and 6.88 in test [1].

On to `O=C(N[C@@H]1C[C@H]2CC[C@@H](C1)N2Cc1ccc2cc(F)ccc2c1)c1cnccc1C(=O)N1CCCCC1`, for which the pIC50 at Cytochrome P450 2D6 is 4.57; in test [1], 7.07.

As to `O=C(N[C@@H]1C[C@H]2CC[C@@H](C1)N2Cc1ccc2cc(F)ccc2c1)c1ccccc1OC1CCCCC1`, the figures for the pIC50 (on Cytochrome P450 2D6; in test [1]) were 6.24 and 6.93, respectively. Turning to `O=C(N[C@@H]1C[C@H]2CC[C@@H](C1)N2Cc1ccc2cc(F)ccc2c1)c1ccccc1-c1ccccn1`, the pIC50 was 5.40 on Cytochrome P450 2D6 and 7.24 in [1].

Consider `O=C(N[C@@H]1C[C@H]2CC[C@@H](C1)N2Cc1ccc2cc(F)ccc2c1)c1cc[n+]([O-])cc1C(=O)N1CCCCC1`, for which the outcome in test [2], in [3] and in test [4] was inactive.

Take `O=C(N[C@@H]1C[C@H]2CC[C@@H](C1)N2Cc1ccc2cc(F)ccc2c1)c1ccccc1-c1ccncc1`: the pIC50 in test [1] is 6.21. Turning to `O=C(N[C@@H]1C[C@H]2CC[C@@H](C1)N2Cc1ccc2cc(F)ccc2c1)c1ccccc1C(=O)N1CCCCC1`, the negative-log IC50 (pIC50) on Cytochrome P450 2D6 is 5.19; in test [1], 7.64. Regarding `O=C(N[C@@H]1C[C@H]2CC[C@@H](C1)N2Cc1ccc2cc(F)ccc2c1)c1ccncc1C(=O)N1CCCCC1`, the pIC50 is 5.17 on Cytochrome P450 2D6 and 7.89 in test [1]. On to `O=C(N[C@@H]1C[C@H]2CC[C@@H](C1)N2Cc1ccc2cc(F)ccc2c1)c1cccnc1C(=O)N1CCCCC1`, for which the values for the pIC50 (at Cytochrome P450 2D6; in test [1]) were 4.74 and 7.01, respectively.

In the case of `CN1CCN(C(=O)c2ccccc2C(=O)N[C@@H]2C[C@H]3CC[C@@H](C2)N3Cc2ccc3cc(F)ccc3c2)CC1`, the results for the pIC50 (on Cytochrome P450 2D6; in test [1]) were 5.15 and 6.32, respectively. Regarding `O=C(N[C@@H]1C[C@H]2CC[C@@H](C1)N2Cc1ccc2cc(F)ccc2c1)c1ccccc1-n1ccnc1`, the pIC50 in test [1] was 6.66. For the molecule `CN(C(=O)c1ccccc1C(=O)N[C@@H]1C[C@H]2CC[C@@H](C1)N2Cc1ccc2cc(F)ccc2c1)C1CCCCC1`, the pIC50 at Cytochrome P450 2D6 was 5.54; in test [1], 7.36.

With `O=C(N[C@@H]1C[C@H]2CC[C@@H](C1)N2Cc1ccc2cc(F)ccc2c1)c1ccccc1N1CCCCC1`, the negative logarithm of the IC50 (pIC50) in test [1] was 6.55. Consider `O=C(N[C@@H]1C[C@H]2CC[C@@H](C1)N2Cc1ccc2cc(F)ccc2c1)c1ccccc1C(=O)N1CCCCCC1`, for which the pIC50 was 5.52 at Cytochrome P450 2D6 and 7.92 in test [1].

Consider `O=C(N[C@@H]1C[C@H]2CC[C@@H](C1)N2Cc1ccc2cc(F)ccc2c1)c1ccccc1-c1nccs1`, for which the pIC50 was 5.62 at Cytochrome P450 2D6 and 7.05 in [1].

Consider `O=C(N[C@@H]1C[C@H]2CC[C@@H](C1)N2Cc1ccc2cc(F)ccc2c1)c1ccccc1C(=O)N1CCCC1`, for which the figures for the pIC50 (on Cytochrome P450 2D6; in test [1]) were 5.14 and 6.65, respectively. Take `O=C(N[C@@H]1C[C@H]2CC[C@@H](C1)N2Cc1ccc2cc(F)ccc2c1)c1ccccc1-c1cncnc1`: the negative logarithm of the IC50 (pIC50) on Cytochrome P450 2D6 was 5.54; in test [1] it was 7.03. Take `O=C(NC1C[C@H]2CC[C@H](C1)N2Cc1ccc2cc(F)ccc2c1)c1ccccc1-c1ccccc1` (stereo partly specified): the pIC50 against Cytochrome P450 1A2, on Cytochrome P450 2C9, against Cytochrome P450 2C19 and against Cytochrome P450 3A4 was < 4.70 throughout. As to `O=C(N[C@@H]1C[C@H]2CC[C@@H](C1)N2Cc1ccc2cc(F)ccc2c1)c1ccccc1-n1cccc1`, the pIC50 in test [1] was 6.66.

In the case of `O=C(N[C@@H]1C[C@H]2CC[C@@H](C1)N2Cc1ccc2cc(F)ccc2c1)c1ccccc1C(=O)N1CCOCC1`, the negative-log IC50 (pIC50) is 5.09 at Cytochrome P450 2D6 and 6.17 in test [1].
